Key:
beta-catenin = assay: Nuclear beta-catenin luciferase assay in TCF/LEF reporter_HEK293 cell line; format: cell-based; details: TCF/LEF reporter_HEK293, 1 μm or 10 μm, 24 hours, FIG. 1
[1] = test system: mitochondrial permeability transition pore (mPTP); assay: TMRM staining of 293T cells after CCCP-induced mPTP opening; format: cell-based; details: 1 μM and 10 μM, CCCP 50 μM, FIG. 3
[2] = test system: reperfusion injury mouse model; assay: Mouse myocardial necrosis in reperfusion injury model, Annexin-Vivo750 fluorescent dye; format: in vivo; details: Annexin-Vivo750, FIG. 7B
Description: In order to confirm the inhibitory effect of deoxycholic acid among the bile acids on myocardial necrosis caused by reperfusion injury, the test was performed to confirm mouse myocardial necrosis using Annexin-Vivo750 fluorescent dye.
After 24 hours, Annexin-Vivo750 fluorescent dye was injected into the mouse model prepared in Example 3 to examine the effect of deoxycholic acid (1, 2, 5 mg/kg (mpk)) by the concentration. Annexin dyes are known to bind where apoptosis occurs and to show fluorescence.

[3] = test system: reperfusion injury mouse model; assay: Reperfusion injury mouse model, TTC staining of infarcted heart tissue

SMILES | beta-catenin levels in the nucleus (luciferase activity) (beta-catenin) | inhibition of mitochondrial injury [1] | decrease of myocardial death compared to the control group with reperfusion surgery ([2]; 1 mpk) [%] | decrease of myocardial death compared to the control group with reperfusion surgery ([2]; 2 mpk) [%] | reduction of the infarcted area ([3]; 2 mg/kg, FIG. 6B) | concentration at which cells died ([3]; reperfusion injury mouse model) [mg/kg] | concentration at which the effect was shown ([3]; reperfusion injury mouse model) [mg/kg]
C[C@H](CCC(=O)NCCS(=O)(=O)O)[C@H]1CC[C@H]2[C@@H]3[C@H](O)C[C@@H]4C[C@H](O)CC[C@]4(C)[C@H]3C[C@H](O)[C@]12C [TauroCA, taurocholic acid] | significantly increased |  |  |  |  |  | 
C[C@H](CCC(=O)O)[C@H]1CC[C@H]2[C@@H]3[C@H](O)C[C@@H]4C[C@H](O)CC[C@]4(C)[C@H]3C[C@H](O)[C@]12C [cholic acid] | significantly increased | about 90% |  |  |  |  | 
C[C@H](CCC(=O)O)[C@H]1CC[C@H]2[C@@H]3CC[C@@H]4C[C@H](O)CC[C@]4(C)[C@H]3C[C@H](O)[C@]12C [deoxycholic acid] |  | about 90% | ≥ 40 | ≥ 40 | about 50% | ≥ 10 | ≤ 2
